Test results taken from patent US10745393B2, “Small molecular probes, processes and use thereof” (JAWAHARLAL NEHRU CENTRE FOR ADVANCED SCIENTIFIC RESEARCH, priority 2014, dated 2020).

Key:
[1] = Partition coefficient (Log P), shake flask method; format: physicochemical; conditions: n-octanol/water
Method: Log P value is calculated by Shake flask (or tube) method. To an equilibrated solution of n-octanol and water in a separating funnel, probe QC/TC is added and agitated well. The solution is left for 30 minutes for proper separation of immiscible solvents, then the distribution of QC/TC is calculated using UV spectroscopy and the obtained concentrations are used in below equation to obtain log P value log P=log [Conc. of QC or TC in n-octanol/Conc. of QC or TC in water]

[2] = molecular target: α-Synuclein (α-Syn) aggregates (Homo sapiens, UniProt P37840); assay: Selectivity: fluorescence with α-synuclein aggregates; format: binding
[3] = system: α-synuclein (A30P) aggregates expressed in S. cerevisiae (BY4741); format: cell-based; conditions: QC 5 μM
Aβ42 monomers = Aβ42 monomers (Homo sapiens, UniProt P05067); assay: Absorption / fluorescence response with Aβ monomers; format: binding; conditions: QC 2 μM, Aβ monomers 10 μM
Aβ42 aggregates [4] = molecular target: T1, Aβ42 aggregates (Homo sapiens, UniProt P05067); assay: Absorption / fluorescence response with Aβ42 fibrillar aggregates; format: binding
calf thymus DNA = assay: Selectivity of QC: fluorescence with calf thymus DNA; format: binding; conditions: QC 2 μM, DNA 20 μM
Source text: Selective fluorescence enhancement is shown by QC probe, with strong binding affinity. Probe QC has very good lipophilicity to cross the BBB and serum stability. QC detects Aβ plaques in CSF samples of patient which can be used in early diagnosis of Alzheimer's Disease. Probe QC is a molecular rotor moiety containing an electron withdrawing group in conjugation with an electron releasing group with a freely rotatable bond. Prevention of internal rotation in QC by surrounding medium rigidity, leads to a decrease in the non-radiative decay rate and an increase in fluorescence emission. […] In presence of Aβ42 aggregates (10 μM) prepared in PBS buffer (10 mM), absorption maxima at 521 nm (λex) and a blue shifted emission maxima (10 nm) with huge (>100 fold) fluorescence enhancement ([…]=654 nm) and a large stoke shift of ˜130 nm is observed (FIG. 47). […] These peptides are known to form fibrillar aggregates similar to Aβ42 aggregates. […] No such changes are observed in case of IAPP aggregates.

[5] = molecular target: T2, islet amyloid polypeptide (IAPP) aggregates (Homo sapiens, UniProt P10997); assay: Selectivity: fluorescence with IAPP aggregates; format: binding; conditions: IAPP aggregates 20 μM
T2 construct: A 0.1 mg (Merck, calbiochem) sample of amylin is dissolved in 100 μL of acetonitrile; purchased Merck, calbiochem

[6] = system: Aβ plaques in CSF samples; assay: Detection of amyloid plaques in CSF samples by fluorescence; conditions: QC 10 μM
Method: In the present experiment, Amyloid plaques in the CSF sample are detected as it is a hallmark of AD using ThT and QC. […] QC (10 μM) is used to detect Aβ plaques in the same set of CSF samples, which show the same trend as Thioflavin assay and stains CSF3, CSF5, CSF6 and CSF12 samples (FIG. 57 and table 6).

[7] = molecular target: ThT/Aβ42 aggregate complex (Homo sapiens, UniProt P05067); assay: ThT displacement / FRET assay; format: binding; conditions: decay at 483 nm, enhancement at 654 nm
Aβ42 aggregates [8] = molecular target: T1, Aβ42 aggregates; assay: Binding saturation assay (fluorescence) for binding constant; conditions: fluorescence saturation curve; Aβ42 aggregates 10 μM (QC) or 2 μM (TC); read-out: dissociation constant Kd
[9] = system: Aβ42 aggregates expressed in S. cerevisiae (BY4741); format: cell-based
[10] = Absorption, emission and quantum yield of probes without Aβ42 aggregates; format: physicochemical
[11] = In vitro stability in human blood serum (HPLC); format: in vitro ADME; conditions: 60 min incubation with human blood serum at 37° C.
Method: The in vitro stability of QC in […] is determined by incubating QC (10 μM in H2O, 50 μM) with 300 μL of human blood serum at 37° C. for 30 and 60 min. Proteins are precipitated by adding 500 μL of acetonitrile […] at 5000 rpm for 5 min at 4° C. The supernatant is collected. Approximately 0.1 mL of the supernatant solution is analyzed using HPLC.

[12] = molecular target: bovine serum albumin (BSA) (Bos taurus, UniProt P02769); assay: Selectivity: fluorescence with BSA; format: binding
[13] = cresyl violet perchlorate standard

Sequence of bovine serum albumin (BSA) (P02769 25-607): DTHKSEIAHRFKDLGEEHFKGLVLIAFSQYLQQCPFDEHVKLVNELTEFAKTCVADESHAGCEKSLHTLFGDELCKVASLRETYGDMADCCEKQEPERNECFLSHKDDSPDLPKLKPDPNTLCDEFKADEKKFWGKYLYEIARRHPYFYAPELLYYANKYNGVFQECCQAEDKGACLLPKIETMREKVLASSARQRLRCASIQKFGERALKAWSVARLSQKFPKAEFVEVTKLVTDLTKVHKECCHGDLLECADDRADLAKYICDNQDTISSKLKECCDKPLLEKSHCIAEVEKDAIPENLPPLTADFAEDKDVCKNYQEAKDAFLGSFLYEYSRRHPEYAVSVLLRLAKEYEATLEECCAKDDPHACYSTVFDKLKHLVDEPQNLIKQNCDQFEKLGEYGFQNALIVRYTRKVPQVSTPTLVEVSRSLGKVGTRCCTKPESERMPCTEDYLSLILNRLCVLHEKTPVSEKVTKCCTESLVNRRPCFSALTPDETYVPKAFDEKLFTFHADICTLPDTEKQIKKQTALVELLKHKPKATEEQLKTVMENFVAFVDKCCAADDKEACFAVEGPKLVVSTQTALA
T1 sequence (P05067 672-713 limits assumed): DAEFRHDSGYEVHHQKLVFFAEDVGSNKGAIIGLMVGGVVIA
Sequence of Aβ42 monomers (P05067 672-713 limits assumed): as above
T2 sequence (P10997 34-70 limits assumed): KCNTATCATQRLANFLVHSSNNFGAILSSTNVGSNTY
Sequence of ThT/Aβ42 aggregate complex (P05067 672-713 limits assumed, one chain of several): as the sequence (P05067 672-713 limits assumed) above

CCN(CC)c1ccc2cc(/C=C/c3ccc4ccccc4[n+]3C)c(=O)oc2c1.[I-] [QC, 2-(2-(7-(diethylamino)-2-oxo-2H-chromen-3-yl)vinyl)-1-methylquinolin-1-ium Iodide]
logP [1]: 2.4
blue shift of λem maxima with α-Syn aggregates ([2]; QC 2 μM, α-Syn 20 μM): ~9 nm
fluorescence enhancement with α-Syn aggregates ([2]; α-Syn aggregates 20 μM): negligible enhancement in fluorescence
staining of S. cerevisiae strains with α-synuclein (A30P) aggregates [3]: not stained
absorption maxima in presence of Aβ monomers (Aβ42 monomers): 521 nm
fluorescence enhancement in presence of Aβ monomers (Aβ42 monomers; λem=654 nm): ~7 fold
Stokes shift upon binding to Aβ42 aggregates (Aβ42 aggregates [4]): ~130 nm
blue shift of emission maxima in presence of Aβ42 aggregates (Aβ42 aggregates [4]; QC 2 μM, Aβ42 aggregates 10 μM): 10 nm
absorption maxima in presence of Aβ42 aggregates (Aβ42 aggregates [4]; QC 2 μM, Aβ42 aggregates 10 μM, PBS 10 mM): 521 nm
quantum yield after binding to Aβ42 aggregates (Aβ42 aggregates [4]; [13]): 0.36
emission maximum in presence of Aβ42 aggregates (Aβ42 aggregates [4]; probe 2 μM): 654 nm
fluorescence enhancement in presence of Aβ42 aggregates (Aβ42 aggregates [4]; probe 2 μM, PBS buffer): > 100 fold
fluorescence enhancement with calf thymus DNA (calf thymus DNA): slight fluorescence enhancement
fluorescence enhancement with IAPP aggregates [5]: negligible enhancement in fluorescence
Normalized fluorescence intensity (QC) ([6]; sample CSF1): 12.50
Normalized fluorescence intensity (QC) ([6]; sample CSF2): 3.24
Normalized fluorescence intensity (QC) ([6]; sample CSF3): 29.60
Normalized fluorescence intensity (QC) ([6]; sample CSF4): 10.70
Normalized fluorescence intensity (QC) ([6]; sample CSF5): 51.50
Normalized fluorescence intensity (QC) ([6]; sample CSF6): 29.60
Normalized fluorescence intensity (QC) ([6]; sample CSF7): 6.40
Normalized fluorescence intensity (QC) ([6]; sample CSF8): 11.08
Normalized fluorescence intensity (QC) ([6]; sample CSF9): 6.30
Normalized fluorescence intensity (QC) ([6]; sample CSF10): 5.40
Normalized fluorescence intensity (QC) ([6]; sample CSF11): 6.70
Normalized fluorescence intensity (QC) ([6]; sample CSF12): 44.40
Normalized fluorescence intensity (QC) ([6]; sample CSF13): 3.20
Normalized fluorescence intensity (QC) ([6]; sample CSF14): 12.30
displacement of ThT from ThT/Aβ42 aggregate complex [7]: effective displacement of ThT by QC
Kd (Aβ42 aggregates [8]): 82 ± 2.3 nM
fluorescence correlation coefficient with GFP tagged Aβ42 aggregates ([9]; QC 5 μM): 83.7%
staining of S. cerevisiae expressing Aβ42 aggregates ([9]; QC 5 μM, live cells): stains S. cerevisiae expressing Aβ42 aggregates selectively
mean Pearson co-localization coefficient ([9]; live cells counted (n=50)): 0.837
absorption maximum in absence of Aβ42 aggregates ([10]; PBS buffer (10 mM, pH 7.4)): 516 nm
emission maximum in absence of Aβ42 aggregates ([10]; PBS buffer, very weak fluorescence): 664 nm
quantum yield, unbound [10, 13]: 0.08
probe identified intact [11]: more than 97%
fluorescence enhancement with BSA ([12]; BSA 20 μM): considerable fluorescence enhancement is not observed
shift of emission with BSA ([12]; QC 2 μM): ~34 nm
λem with BSA ([12]; QC 2 μM): 616 nm
